In US11083707B2, “Substituted indoline derivatives as dengue viral replication inhibitors” (JANSSEN PHARMACEUTICALS, INC., priority 2017, dated 2021):

test system: Vero cells; assay: not given; details: African green monkey

| Structure (SMILES) | CC50 [nM] |
| --- | --- |
| COc1cc(NC(C(=O)N2CCc3cc(F)c(OC(F)(F)F)cc32)c2ccc(Cl)cc2OCCO)cc(-n2cncn2)c1 (single isomer, unassigned) [Compound 9B] | 10000 |
| COc1cc(NC(C(=O)N2CCc3c(C)cc(OC(F)(F)F)cc32)c2ccc(Cl)cc2OCCO)cc(-n2cncn2)c1 (single isomer, unassigned) [Compound 10B] | 11000 |
| COc1cc(NC(C(=O)N2CCc3cc(OC)c(C(F)(F)F)cc32)c2ccc(Cl)cc2OCCCC(=O)O)cc(-n2cncn2)c1 (single isomer, unassigned) [Compound 12B] | 12000 |
| COc1cc(NC(C(=O)N2CCc3ccc(OC(F)(F)F)cc32)c2ccc(Cl)cc2OCCCC(=O)O)cc(-n2cncn2)c1 (single isomer, unassigned) [Compound 13B] | 12000 |

test system: DENV-2 strain 16681; assay: Tetravalent RT-qPCR assay Protocol A, serotype 2; type: cell-based; details: Dengue virus, DENV2, 72 h; RT-qPCR serotype 2 16681, Vero cells, day 3; read-out: EC50
Procedure: (§1) The antiviral activity of the compounds of the invention was tested against DENV-1 strain TC974#666 (NCPV), DENV-2 strain 16681, DENV-3 strain H87 (NCPV) and DENV-4 strain H241 (NCPV) in a RT-qPCR assay. Therefore, Vero cells were infected with either DENV-1, or -2, or -3, or -4 in the presence or absence of test compounds. At day 3 post-infection, the cells were lysed and cell lysates were used to prepare cDNA of both a viral target (the 3′UTR of DENV; Table 2) and a cellular reference gene (β-actin, Table 2). Subsequently, a duplex real time PCR was performed on a Lightcycler480 instrument. The generated Cp value is inversely proportional to the amount of RNA expression of these targets. Inhibition of DENV replication by a test compound results in a shift of Cp's for the 3′UTR gene. On the other hand, if a test compound is toxic to the cells, a similar effect on β-actin expression will be observed. The comparative ΔΔCp method is used to calculate EC50, which is based on the relative gene expression of the target gene (3′UTR) normalized with the cellular housekeeping gene (β-actin). In addition, CC50 values are determined based on the Cp values acquired for the housekeeping gene β-actin.
(§2) The culture medium consisted of minimal essential medium supplemented with 2% of heat-inactivated fetal calf serum, 0.04% gentamycin (50 mg/mL) and 2 mM of L-glutamine. Vero cells, obtained from ECACC, were suspended in culture medium and 75 μL/well was added in 96-well plates (10000 cells/well), which already contain the antiviral compounds. […] In addition, each plate contains wells which are assigned as virus controls (containing cells and virus in the absence of compound) and cell controls (containing cells in the absence of virus and compound). Once the cells were added in the plates, the plates were incubated in a fully humidified incubator (37° C., 5% CO2) until the next day. Dengue viruses serotype-1, 2, 3 and 4 were diluted in order to obtain a Cp of ˜22-24 in the assay. Therefore, 25 μL of virus suspension was added to all the wells containing test compound and to the wells assigned as virus control. In parallel, 25 μL of culture medium was added to the cell controls. Next, the plates were incubated for 3 days in a fully humidified incubator (37° C., 5% CO2). After 3 days, the supernatant was removed from the wells and the cells were washed twice with ice-cold PBS (˜100 μL). The cell pellets within the 96-well plates were stored at −80° C. for at least 1 day. Next, RNA was extracted using the Cells-to-CT™ lysis kit, according to the manufacturer's guideline (Life Technologies). The cell lysates can be stored at −80° C. or immediately used in the reverse transcription step.
(§3) In preparation of the reverse transcription step, mix A (table 3A) was prepared and 7.57 μL/well was dispensed in a 96-well plate. After addition of 5 μL of the cell lysates, a five minute denaturation step at 75° C. was performed (table 3B). Afterwards, 7.43 μL of mix B was added (table 3C) and the reverse transcription step was initiated (table 3D) to generate cDNA.
(§4) Finally, a RT-qPCR mix was prepared, mix C (table 4A), and 22.02 μL/well was dispensed in 96-well LightCycler qPCR plates to which 3 μL of cDNA was added and the qPCR was performed according to the conditions in table 4B on a LightCycler 480.
(§5) Using the LightCycler software and an in-house LIMS system, dose response curves for each compound were calculated and the half maximal effective concentration (EC50) and the half maximal cytotoxic concentration (CC50) were determined (Tables 5-8).

| Structure (SMILES) | EC50 [nM] |
| --- | --- |
| COc1cc(NC(C(=O)N2CCc3cc(F)c(OC(F)(F)F)cc32)c2ccc(Cl)cc2OCCO)cc(-n2cncn2)c1 (single isomer, unassigned) [Compound 9B] | 0.47 |
| COc1cc(NC(C(=O)N2CCc3c(C)cc(OC(F)(F)F)cc32)c2ccc(Cl)cc2OCCO)cc(-n2cncn2)c1 (single isomer, unassigned) [Compound 10B] | 0.15 |

test system: DENV-4 strain H241; assay: Tetravalent RT-qPCR assay Protocol A, serotype 4; type: cell-based; details: Dengue virus, DENV4, 72 h; RT-qPCR serotype 4 H241, Vero cells, day 3
Procedure: as §1, §2, §3, §4, §5

| Structure (SMILES) | EC50 [nM] |
| --- | --- |
| COc1cc(NC(C(=O)N2CCc3cc(F)c(OC(F)(F)F)cc32)c2ccc(Cl)cc2OCCO)cc(-n2cncn2)c1 (single isomer, unassigned) [Compound 9B] | 87 |
| COc1cc(NC(C(=O)N2CCc3c(C)cc(OC(F)(F)F)cc32)c2ccc(Cl)cc2OCCO)cc(-n2cncn2)c1 (single isomer, unassigned) [Compound 10B] | 32 |

test system: DENV-1 strain TC974#666; assay: Tetravalent RT-qPCR assay Protocol A, serotype 1; type: cell-based; details: Dengue virus, DENV1, 72 h; RT-qPCR serotype 1 TC974#666, Vero cells, day 3
Procedure: as §1, §2, §3, §4, §5

| Structure (SMILES) | EC50 [nM] |
| --- | --- |
| COc1cc(NC(C(=O)N2CCc3cc(F)c(OC(F)(F)F)cc32)c2ccc(Cl)cc2OCCO)cc(-n2cncn2)c1 (single isomer, unassigned) [Compound 9B] | 0.99 |
| COc1cc(NC(C(=O)N2CCc3c(C)cc(OC(F)(F)F)cc32)c2ccc(Cl)cc2OCCO)cc(-n2cncn2)c1 (single isomer, unassigned) [Compound 10B] | 0.36 |

test system: DENV-3 strain H87; assay: Tetravalent RT-qPCR assay Protocol A, serotype 3; type: cell-based; details: Dengue virus, DENV3, 72 h; RT-qPCR serotype 3 H87, Vero cells, day 3
Procedure: as §1, §2, §3, §4, §5

| Structure (SMILES) | EC50 [nM] |
| --- | --- |
| COc1cc(NC(C(=O)N2CCc3cc(F)c(OC(F)(F)F)cc32)c2ccc(Cl)cc2OCCO)cc(-n2cncn2)c1 (single isomer, unassigned) [Compound 9B] | 6.4 |
| COc1cc(NC(C(=O)N2CCc3c(C)cc(OC(F)(F)F)cc32)c2ccc(Cl)cc2OCCO)cc(-n2cncn2)c1 (single isomer, unassigned) [Compound 10B] | 5.9 |

test system: DENV-2 16681 strain; assay: DENV-2 antiviral assay (eGFP fluorescence, Vero cells); type: cell-based, Dengue virus; details: DENV-2 16681 eGFP, MOI 0.5, 3 days
Procedure: The antiviral activity of all the compounds of the invention was tested against the DENV-2 16681 strain which was labeled with enhanced green fluorescent protein (eGPF). The culture medium consists of minimal essential medium supplemented with 2% of heat-inactivated fetal calf serum, 0.04% gentamycin (50 mg/mL) and 2 mM of L-glutamine. Vero cells, obtained from ECACC, were suspended in culture medium and 25 μL was added to 384-well plates (2500 cells/well), which already contain the antiviral compounds. Typically, these plates contain a 5-fold serial dilution of 9 dilution steps of the test compound at 200 times the final concentration in 100% DMSO (200 nL). […] Finally, each plate contains wells which are assigned as virus controls (containing cells and virus in the absence of compound), cell controls (containing cells in the absence of virus and compound) and medium controls (containing medium in the absence of cells, virus and compounds). To the wells assigned as medium control, 25 μL of culture medium was added instead of Vero cells. Once the cells were added to the plates, the plates were incubated for 30 minutes at room temperature to allow the cells to distribute evenly within the wells. Next, the plates were incubated in a fully humidified incubator (37° C., 5% CO2) until the next day. Then, DENV-2 strain 16681, labeled with eGFP, was added at a multiplicity of infection (MOI) of 0.5. Therefore, 15 μL of virus suspension was added to all the wells containing test compound and to the wells assigned as virus control. In parallel, 15 μL of culture medium was added to the medium and cell controls. Next, the plates were incubated for 3 days in a fully humidified incubator (37° C., 5% CO2). At the day of the read out, the eGFP fluorescence was measured using an automated fluorescence microscope at 488 nm (blue laser). Using an in-house LIMS system, inhibition dose response curves for each compound were calculated and the half maximal effective concentration (EC50) was determined. Therefore, the percent inhibition (I) for every test concentration is calculated using the following formula: I=100*(ST-SCC)/(SVC-SCC), ST, SCC and SVC are the amount of eGFP signal in the test compound, cell control and virus control wells, respectively. The EC50 represents the concentration of a compound at which the virus replication is inhibited with 50%, as measured by a 50% reduction of the eGFP fluorescent intensity compared to the virus control. The EC50 is calculated using linear interpolation (Table 1).

| Structure (SMILES) | EC50 [nM] |
| --- | --- |
| COc1cc(NC(C(=O)N2CCc3cc(F)c(OC(F)(F)F)cc32)c2ccc(Cl)cc2OCCO)cc(-n2cncn2)c1 (single isomer, unassigned) [Compound 9B] | 0.6 |
| COc1cc(NC(C(=O)N2CCc3c(C)cc(OC(F)(F)F)cc32)c2ccc(Cl)cc2OCCO)cc(-n2cncn2)c1 (single isomer, unassigned) [Compound 10B] | 0.25 |
| COc1cc(NC(C(=O)N2CCc3cc(OC)c(C(F)(F)F)cc32)c2ccc(Cl)cc2OCCCC(=O)O)cc(-n2cncn2)c1 (single isomer, unassigned) [Compound 12B] | 320 |
| COc1cc(NC(C(=O)N2CCc3ccc(OC(F)(F)F)cc32)c2ccc(Cl)cc2OCCCC(=O)O)cc(-n2cncn2)c1 (single isomer, unassigned) [Compound 13B] | 12 |
